Experimental findings from patent publication US10668048B2, “Compounds for inhibiting bacterial growth via phosphatidylglycerol binding” (Wichita State University, priority 2016, dated 2020) are described below.

In brackets after ≈: the same amount, converted by molar mass.

Series [1] is described as follows: Inorganic phosphate anion binding in DMF solution. The source says:
Liptins 2a-2d (FIG. 2A) have been prepared and characterized, but not published. However, example syntheses of several precursors required for the preparation of liptins 2a-2d, via precursors 7-8, utilizing soluble copper catalyst developed in our laboratory to couple the two aromatic rings and to elaborate the ring structure is based upon our previous experience, as is our methodology to efficiently ureidoalkylate the bis-phenol intermediates (FIG. 5). […] In contrast, inorganic phosphate anion bound more tightly to 2c (Ka=10^3 M^−1), indicating the anion binding unit with […] linking the two phenolic oxygens was a complementary fit for phosphate anion. By adding two additional methylene groups to the bridge linking the two rings [i.e., now (CH2)5, 2d], the size of the pocket better accommodates the PG head group, leading to increased […] with a Ka≈500 M^−1 in DMF. To further increase binding affinity, we changed the 3-hydroxypropane para-substituent into a 2,3-propane diol para-substituent (seen in 8 prepared from 7, FIG. 5). This increased the number of possible interactions between the liptin and the PG glycerol hydroxyls and reduced possible conformational constraints in the binding pocket when only two hydroxyl groups are present. […]

Series [2] can be described thus: Liptin-PG binding in solution (ITC and/or 1H NMR titration). To be noted: ITC; DMF/5% CHCl3; 1:1 binding stoichiometry. The procedure: The lipid binding ability of liptins 1-3 (FIG. 2A) have been investigated in solution using isothermal titration calorimetry (ITC) and/or ^1H NMR. Stoichiometry of binding was accomplished with Job plots using ^1H NMR. […] The use of organic solvents allowed the determination of binding motif using ^1H NMR.
Liptins 1b, 1e, 2c, 2d, 3a, 3c in DMF/5% CHCl3; 3e in 50% DMSO, 45% CHCl3, 5% CH3OH.
Liptins 1h and 1i 40% DMSO, 60% CHCl3, 3f in 20% DMSO, 80% CHCl3.

The test system of series [3] is Acinetobacter baumannii. In words: MIC in cation-adjusted Muller Hinton culture. It is filed as cell-based. As to conditions: no growth after 24 hours. The procedure: (§1) MICs were determined in cation-adjusted Muller Hinton culture. Standard CLSI protocol for serial dilutions of liptin concentrations were used to determine the MIC, starting at 0.01 OD. Two different experimental cultures were used and each data point measured in triplicate.

Series [4] concerns Staphylococcus aureus. Nature of the series: MIC in cation-adjusted Muller Hinton culture. The class given is cell-based. To be noted: no growth after 24 hours. The procedure: as §1
In series [5] the test system is Escherichia coli. In words: MIC in cation-adjusted Muller Hinton culture. The class given is cell-based. To be noted: no growth after 24 hours. As to the method: as §1
In series [6] the test system is Klebsiella pneumoniae. In words: MIC in cation-adjusted Muller Hinton culture. The class given is cell-based. To be noted: no growth after 24 hours. The procedure:
as §1

Another series has as its system Pseudomonas aeruginosa. In words: MIC in cation-adjusted Muller Hinton culture. It is filed as cell-based. To be noted: no growth after 24 hours. As to the method:
as §1

The subject of series [7] is Mycobacterium smegmatis. In words: MIC in cation-adjusted Muller Hinton culture. To be noted: no growth after 24 hours. The class given is cell-based. As to the method:
as §1

Series [8] relates to MRSA. In words: MBC in cation-adjusted Muller Hinton culture. It is filed as cell-based, Methicillin-resistant S. aureus. As to the method: (§2) Minimum bactericidal concentration (MBC) were determined in cation-adjusted Muller Hinton culture. Standard CLSI protocol for serial dilutions of liptin concentrations were used to determine the MBC, starting at 0.01 OD. Two different experimental cultures were used and each data point measured in triplicate.

Series [9] concerns human HeLa (vaginal carcinoma) cells. In words: LDH release cytotoxicity assay. It is filed as cell-based. As to conditions: up to about 15 μM. As to the method:
(§3) Toxicity Studies of human HeLa (vaginal carcinoma) and A549 (lung carcinoma epithelial) cells with Liptins 1h and 1k.
(§4) Eukaryote cell toxicity was determined using a Pierce LDH assay kit including the Chemical Compound-Mediated Cytotoxicity assay. This kit measures cell death by measuring the amount of lactate dehydrogenase released from cells. Lactate dehydrogenase (LDH) is a cytosolic enzyme present in many different types of cells. When the plasma membrane is damaged, LDH is released into cell culture media. The released LDH can be quantified by a coupled enzymatic reaction. First, LDH catalyzes the conversion of lactate to pyruvate via reduction of NAD+ to NADH. Second, diaphorase uses NADH to reduce a tetrazolium salt (INT) to a red formazan product. Therefore, the level of formazan formation is directly proportional to the amount of released LDH in the medium.

The subject of series [10] is A549 (lung carcinoma epithelial) cells. Nature of the series: LDH release cytotoxicity assay. It is filed as cell-based. As to conditions: near 15 μM. As to the method:
as §3, §4
A general note: LDH leaks from cells whose membrane has failed.

A further series has as its system E. coli. Nature of the series: BacLight Bacterial Membrane Potential kit, plasma membrane depolarization. To be noted: one half the liptins' MICs; concentration dependent. The class given is cell-based. As to the method: (§5) The Molecular Probes BacLight® Bacterial Membrane Potential kit was used to detect changes in the polarization of the bacterial plasma membrane upon inoculation of bacteria with varying concentrations of liptins 1h or 1k. […] CCCP (carbonyl cyanide 3-chlorophenylhydrazone) is a proton ionophore that destroys plasma membrane potential and as such is a positive control. […] With plasma membrane depolarization the bacterial cell loses its ability to synthesize ATP and proteins. Additionally loss of membrane potential stops the ability for cell replication due to an inability for proper placement of divisome proteins in the plasma membrane. […] Thus, it is possible that the liptin's mechanism of action is a result of their deleterious effect on the functioning of electron transport proteins found in the plasma membrane.

For another series, the system named is S. aureus. Described as above. The class given is cell-based. To be noted: one half the liptins' MICs; concentration dependent. The procedure:
as §5

The test system of series [11] is Acinetobacter baumannii. Nature of the series: MBC in cation-adjusted Muller Hinton culture. The class given is cell-based. The procedure:
as §2

Series [12] relates to Staphylococcus aureus. Nature of the series: MBC in cation-adjusted Muller Hinton culture. The class given is cell-based. The procedure:
as §2

Series [13] concerns Escherichia coli. Nature of the series: MBC in cation-adjusted Muller Hinton culture. It is filed as cell-based. As to the method:
as §2

The subject of series [14] is Klebsiella pneumoniae. Nature of the series: MBC in cation-adjusted Muller Hinton culture. The class given is cell-based. As to the method:
as §2

For series [15], the system named is Mycobacterium smegmatis. Nature of the series: MBC in cation-adjusted Muller Hinton culture. The class given is cell-based. The procedure:
as §2

Series [16] deals with Acinetobacter baumannii. Nature of the series: Live-Dead stain (BacLight SYTO 9 / propidium iodide). It is filed as cell-based. As to conditions: 5 μM, 90 minutes. The procedure: (§6) Molecular Probes BacLight© kits containing the SYTO 9 green-fluorescent dye and propidium iodide red-fluorescent dye were used to detect live or dead bacteria after ninety minute exposure of bacteria to liptins 1h or 1k. Bacteria in Muller Hinton culture were grown to an OD=0.3, were inoculated with liptins 1h and 1k and after ninety minutes stained with a mixture of the above dyes and affixed to a slide to be examined under a light microscope (40×) to determine the number of live and dead cells (green colored cells considered alive and red-colored cells considered dead). Data was calculated based upon an average of 5 different plate counts from each slide, and is based on a percent of total bacteria counted (live and dead). Control sample contains no liptin.

In series [17] the test system is Staphylococcus aureus. The series is described as above. It is filed as cell-based. As to conditions: 5 μM, 90 minutes. The procedure: as §6
Series [18] relates to Escherichia coli. Described as above. As to conditions: 10 μM, 90 minutes. The class given is cell-based. The procedure: as §6
The subject of series [19] is Klebsiella pneumoniae. The series is described as above. The class given is cell-based. To be noted: 5 μM, 90 minutes. As to the method:
as §6

Series [20] relates to Mycobacterium smegmatis. The description is as above. It is filed as cell-based. As to conditions: 5 μM, 90 minutes. As to the method: as §6
The subject of series [21] is MRSA. The series is described as above. It is filed as cell-based, Methicillin-resistant S. aureus. As to conditions: 90 minutes. The procedure:
as §6

Series [22] relates to Gram-positive and Gram-negative bacteria. In words: Growth curves in BHI culture with liptins 1h-k. The class given is cell-based. As to conditions: one inoculation. The procedure:
Growth curves in BHI culture were generated (not shown) from liquid shake-flask cultures using absorbance measurements at 600 nm at different concentrations of liptins 1h-k. Uninoculated control flasks were used as blanks. Absorbance values of 0.1 OD unit was considered reasonable threshold for positive growth. The use of the nutrient-rich BHI culture allowed us to measure the effects of the small structural differences in liptins 1h-k on bacterial growth rates over long periods of time. […] Liptin exposure appears to stop bacterial growth, as evidenced by long lag phases, which increase with liptin concentration, and growth rates and maximum cell densities are decreased with liptin treatment.

The test system of series [23] is MRSA. In words: MIC in cation-adjusted Muller Hinton culture. It is filed as cell-based, Methicillin-resistant S. aureus. As to conditions: no growth after 24 hours. As to the method: as §1
Series [24] deals with Gram-negative and Gram-positive bacteria. In words: MIC/MBC in Muller Hinton culture, summary over the bacteria tested. The class given is cell-based. As to the method: as §1, §2

As to `O=C(NCc1cc(CCCO)cc2c1OCOc1c(cc(CCCO)cc1CNC(=O)Nc1ccccc1)CCC2)Nc1ccccc1` [Liptin 2c], in series [1], the “Ka for inorganic phosphate anion” value is listed as 10^3 M^−1. Moreover, in [2], the Ka is 420 M⁻¹.

As for `CCCCCCNC(=O)Cc1ccc2c(c1)CNCCCCNCc1cc(CC(=O)NCCCCCC)ccc1OCCCCO2` [Liptin 1k], the MIC was 2 µM (≈ 1.27 µg/mL) with Acinetobacter baumannii [3]; 2 µM (≈ 1.27 µg/mL) in the series with Staphylococcus aureus [4]; 1.5 µM (≈ 0.955 µg/mL) in the series on Escherichia coli [5]; 2.5 µM (≈ 1.59 µg/mL) with Klebsiella pneumoniae [6]; 8 µM (≈ 5.1 µg/mL) against Pseudomonas aeruginosa; 2 µM (≈ 1.27 µg/mL) against Mycobacterium smegmatis [7]. The compound also yielded an MIC with MRSA [23] of 2.5 µM (≈ 1.59 µg/mL). Moreover, the MBC turned out to be 11.5 µM (≈ 7.32 µg/mL) in the series with MRSA [8]; 7.5 µM (≈ 4.78 µg/mL) against Acinetobacter baumannii [11]; 9.5 µM (≈ 6.05 µg/mL) against Staphylococcus aureus [12]; 7.5 µM (≈ 4.78 µg/mL) in the series on Escherichia coli [13]; 9.5 µM (≈ 6.05 µg/mL) with Klebsiella pneumoniae [14]; 9.5 µM (≈ 6.05 µg/mL) against Mycobacterium smegmatis [15]. Besides, the “cell toxicity (LDH release)” value in [9] is recorded as “no cell toxicity”. Besides, the “cytotoxicity (LDH release)” value in [10] was “around 8%”. The “plasma membrane depolarization (red/green fluorescence ratio)” value with E. coli and in the series on S. aureus was “large membrane depolarization” throughout. Also, the Dead in the series on Acinetobacter baumannii [16] was determined as 97%; in the series with Staphylococcus aureus [17], 42%; with Escherichia coli [18], 65%; in the series on Klebsiella pneumoniae [19] it was 100%; in the series with Mycobacterium smegmatis [20], 100%; with MRSA [21] (5 μM), 70%. For the same compound, the Dead with MRSA [21] (10 μM) was determined as 100%. Also, the Live in the series with Acinetobacter baumannii [16] is recorded as 3%; in the series with Staphylococcus aureus [17] it was 58%; in the series with Escherichia coli [18], 35%; in the series with Klebsiella pneumoniae [19], 0%; in the series on Mycobacterium smegmatis [20], 0%; in the series on MRSA [21] (5 μM) it was 30%. In addition, in the series on MRSA [21] (10 μM), the Live was found to be 0%. In series [22], the “antibacterial activity from growth curves” value is “most potent”. Besides, the “MICs determined for the 6 bacteria” value in [24] lay in the range of 1.5 to 2.5 µM.

As a reminder, the MIC is the least concentration at which growth counts as inhibited. As usually defined, the MBC is the smallest concentration meeting the test's criterion for killing.
